No end group written: not given here.
Legend:
[1] = system: acetylated tubulin in HeLa, 293T and HepG2 cells; assay: Microtubule destabilizing drug treatment, western blot for acetylated tubulin; type: cell-based; settings: 10 μg/mL colchicine or 1 μg/mL nocodazole for 6 hours
Text: Lysates were equilibrated by total protein concentration and were separated on 10% SDS-PAGE gels and western blotted as described above.
Cells were harvested and lysates separated by SDS-PAGE and western blotting using specific antisera for acetylated tubulin and tubulin.

[2] = molecular target: T1, SIRT2 (Homo sapiens, UniProt Q8IXJ6); assay: Histone deacetylase assay, immunoprecipitated SIRT2-FLAG on [3H]acetylated histone H4 peptide; type: biochemical
T1 sequence (Q8IXJ6 1-389): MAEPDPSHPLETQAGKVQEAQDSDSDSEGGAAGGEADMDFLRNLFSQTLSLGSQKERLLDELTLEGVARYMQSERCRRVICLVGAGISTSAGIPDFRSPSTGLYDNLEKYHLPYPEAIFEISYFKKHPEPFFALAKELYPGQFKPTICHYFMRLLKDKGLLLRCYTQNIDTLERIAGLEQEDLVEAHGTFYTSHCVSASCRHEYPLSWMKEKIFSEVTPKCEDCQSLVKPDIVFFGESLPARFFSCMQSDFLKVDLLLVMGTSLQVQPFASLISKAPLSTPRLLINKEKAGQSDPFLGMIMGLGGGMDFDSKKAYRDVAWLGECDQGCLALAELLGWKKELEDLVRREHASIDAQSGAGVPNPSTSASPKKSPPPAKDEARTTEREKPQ
Procedure: HEK 293T cells were transfected by calcium phosphate DNA precipitation method and lysed 48 hours post-transfection in low stringency lysis buffer (50 mM Tris-HCl, pH 7.5, 0.5 mM EDTA, 0.5% NP-40, 150 mM NaCl) in the presence of protease inhibitor cocktail (Complete, Roche Molecular Biochemicals, Indianapolis, Ind.). FLAG tagged proteins were immunoprecipitated with anti-FLAG M2 agarose affinity gel (Sigma, St. Louis, Mo.) and GFP-tagged proteins were immunoprecipitated with anti-GFP monoclonal antibody (Sigma, St. Louis, Mo.) in the presence of Protein G Sepharose (Amersham Pharmacia Biotech, Inc., Piscataway, N.J.) for 2 hours at 4° C. Immunoprecipitated material was washed 3 times in low stringency lysis buffer and one time in SIRT2 deacetylase buffer (50 mM Tris-HCl, pH 9.0, 4 mM MgCl2, and 0.2 mM dithiothreitol (DTT)).
Immunoprecipitated material and recombinant SIRT2 were resuspended in 100 μL of SIRT2 deacetylase buffer containing NAD (Sigma, St. Louis, Mo.) and [^3H] acetylated histone H4 peptide (a.a. 1-23) (Emiliani et al., 1998). TSA (WACO BioProducts, Richmond, Va.) was resuspended in dimethyl sulfoxide (DMSO) was further diluted in DMSO and added to reactions to desired concentration. […] After centrifugation for 5 minutes, 400 μL of the ethyl acetate fraction was mixed with 5 ml scintillation fluid and counted.

[3] = molecular target: T1, SIRT2; assay: Ex vivo tubulin deacetylation assay, SIRT2-FLAG with cellular lysate, western blot for acetylated tubulin; type: biochemical; settings: 1 mM NAD
Procedure: Immunoprecipitations were resuspended in 100 μl SIRT deacetylase buffer containing 50 μg total cellular lysate from untransfected HEK 293T cells and 1 mM NAD. Reactions containing 400 nM TSA or 5 mM nicotinamide (Sigma, St. Louis, Mo.) were pre-incubated at room temperature with all components of the reaction in the absence of NAD for 10 minutes, Following the pre-incubation, the enzymatic reactions were started with the addition of NAD followed by incubation for 2 hours at room temperature with constant agitation. Reactions were stopped by the addition of 50 μl 6× SDS-polyacrylamide gel electrophoresis (PAGE) buffer. Beads were pelleted by centrifugation at 14,000 rpm for 10 minutes and 10 μl of each supernatant was separated on 10% SDS-PAGE gels and western blotted as described above.
In this assay, HEK 293T cells were transfected with SIRT2-FLAG followed by immunoprecipitation of the FLAG-tagged protein (FIG. 3A). The immunoprecipitated material was separated into two fractions. The first fraction was used to measure HDAC activity using the acetylated histone H4 peptide. […] The extent of acetylation/deacetylation of α-tubulin was determined by western blotting analysis using a specific antisera for acetylated α-tubulin. […]

[4] = system: SIRT1 protein; settings: cited from earlier work
[5] = system: GFP-MIZ-1 sub-cellular distribution in HeLa cells; assay: GFP-MIZ-1 sub-cellular localization by immunofluorescence in transfected HeLa cells; type: cell-based; settings: for percentage of cells with GFP-MIZ-1 localized in the cytoplasm: TSA treatment
Procedure: HeLa cells grown on coverslips were transfected with LipofectAMINE reagent (Gibco Invitrogen Corp., Carlsbad, Calif.) for 8 hours according to manufacturer's protocol or by calcium phosphate DNA precipitation method. Transfected cells were incubated for 12 hours with 400 nM TSA (WACO BioProducts, Richmond, Va.) 24 hours after transfection. Cells were washed twice for 10 minutes in PBS and fixed for 10 minutes in 4% formaldehyde (EMS, Ft. Washington, Pa.) followed by permeabilization for 10 minutes in 0.5% Triton-X-100 in PBS. Following three washes for 10 minutes in PBS, cells were incubated for 10 minutes in 10% BSA, and incubated for 1 hour with anti-acetylated tubulin 6-11B-1, anti-tubulin B-5-1-2 diluted 1:1000, or anti-FLAG M2 diluted 1:500 in 0.1% TWEEN-20™ non-ionic detergent. Cells were washed three times in 0.1% TWEEN-20™ non-ionic detergent, followed by incubation with goat anti-mouse IgG (Fc specific) TRITC-conjugated antibody (Sigma, St. Louis) diluted 1:100 in 0.1% TWEEN-20™ non-ionic detergent. Following incubation cells were incubated for 5 minutes in 20 mg/ml 4′,6′-diamidino-2-phenylindole hydrochloride (DAPI) washed three times in phosphate-buffered saline (PBS), once in ddH2O, and mounted with Gel Mount (Biomeda Corp., Foster City, Calif.). Slides were visualized on a Nikon E600 microscope system equipped with a SPOT 2 Digital Camera. Confocal images were acquired by laser-scanning confocal microscopy with an Olympus BX60 microscope equipped with a Radiance 2000 confocal setup (BioRad, Hercules, Calif.).
Transfected cells were counted as either GFP-MIZ-1 localized completely nuclear or with partial cytoplasmic retention. Cell counts were derived from inspection of at least 150 transfected cells from six microscopic fields. […] Data set is representative of three independent experiments.

[6] = system: α-tubulin; settings: treatment of cells with TSA; cited from earlier work
[7] = molecular target: SIRT3 (Homo sapiens, UniProt Q9NTG7); assay: In vitro HDAC activity assay with recombinant protein (ribavirin); type: biochemical
Procedure: (§1) Inhibitory activity of ribavirin against SIRT2 and SIRT3 proteins was tested using recombinant SIRT2 proteins and an in vitro assay. Ribavirin was incubated with recombinant protein only in buffer for 10 minutes; then NAD and substrate were added to start the reaction. Reactions were incubated for 2 hours at room temperature. Reactions were stopped by adding 25 μL stop buffer (0.1M HC1, 0.16M acetic acid) and vortexing briefly. Ethyl acetate extraction isolated any liberated acetyl groups. Ethyl acetate (0.5 ml) was added, mixture was vortexed for 15 seconds and spun at 14,000 rpm for 5 minutes. The upper phase (0.4 ml) was added to 5 mL scintillation fluid (Econofluor-2; Packard) and counted.

[8] = molecular target: T1, SIRT2; assay: as above; type: biochemical; design: 6xHis; factor Xa protease cleavage site; made in house; host or cells: E. coli DH5αFIQ
Procedure: as §1

[9] = molecular target: T1, SIRT2; assay: Tubulin peptide deacetylation kinetics (HPLC); type: biochemical; design: 6xHis; factor Xa protease cleavage site; made in house; host or cells: E. coli DH5αFIQ; settings: SIRT2, 800 μM NAD, 37° C.
[10] = molecular target: recombinant Hst2p (Saccharomyces cerevisiae, UniProt P53686); assay: Tubulin peptide deacetylation kinetics (HPLC); type: biochemical, yeast; settings: 500 μM NAD, 37° C.
Procedure: Increasing concentrations of tubulin peptide (20-900 μM), and 800 μM NAD were reacted in the presence of 0.8 to 1 μM recombinant SIRT2 in 50 mM Tris, pH 7.5, 1 mM DTT, and 10% methanol at 37° C. For Hst2p reactions, tubulin peptides and 500 μM NAD were reacted in the presence of 9 to 19 μM recombinant Hst2p under the same conditions. Reactions were quenched with trifluoroacetic acid (TFA) to a final concentration of 1%. Time points were chosen such that initial velocity conditions were observed. Samples were injected into the high performance liquid chromatography (HPLC) with a Beckman C18 analytical column. Upon injection, the system was run isocratically with solvent A (0.05% TFA in H2O), followed by a gradient of 0-10% solvent B (0.02% TFA in CH3CN) for 4 minutes, and followed by a gradient of 10-23% solvent B for 23 minutes. Deacetylated and acetylated peptides eluted at 16% and 18% CH3CN, respectively. Elution of substrates and products were monitored by measuring the absorbance at 214 nm, and corresponding peaks were integrated using the Beckman System Gold Nouveau software. The amount of product was quantified by calculating the percentage of the deacetylated tubulin peptide from the total tubulin peptide based upon their integration values. […]

Chain of recombinant Hst2p (P53686 whole entry): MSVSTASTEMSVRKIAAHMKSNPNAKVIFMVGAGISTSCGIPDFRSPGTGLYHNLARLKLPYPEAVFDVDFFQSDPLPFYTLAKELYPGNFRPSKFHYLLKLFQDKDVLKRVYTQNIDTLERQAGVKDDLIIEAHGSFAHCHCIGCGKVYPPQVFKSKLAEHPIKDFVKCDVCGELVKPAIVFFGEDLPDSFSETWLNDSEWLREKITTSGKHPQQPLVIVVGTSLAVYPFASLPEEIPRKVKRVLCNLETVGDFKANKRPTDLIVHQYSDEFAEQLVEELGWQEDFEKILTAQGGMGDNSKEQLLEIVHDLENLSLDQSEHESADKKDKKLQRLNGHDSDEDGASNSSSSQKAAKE
Chain of SIRT3 (Q9NTG7 whole entry): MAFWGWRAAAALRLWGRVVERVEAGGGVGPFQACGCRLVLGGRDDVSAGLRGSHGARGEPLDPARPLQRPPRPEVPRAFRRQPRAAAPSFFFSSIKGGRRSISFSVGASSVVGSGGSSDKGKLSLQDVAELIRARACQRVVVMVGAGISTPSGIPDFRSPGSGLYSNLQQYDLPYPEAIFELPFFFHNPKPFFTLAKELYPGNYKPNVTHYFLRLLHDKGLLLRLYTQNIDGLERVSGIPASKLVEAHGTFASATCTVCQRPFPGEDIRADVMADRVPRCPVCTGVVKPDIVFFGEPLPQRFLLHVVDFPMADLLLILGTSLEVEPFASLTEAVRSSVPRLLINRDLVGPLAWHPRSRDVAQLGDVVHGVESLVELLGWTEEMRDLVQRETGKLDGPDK

COC(=O)Nc1nc2ccc(C(=O)c3cccs3)cc2[nH]1 [nocodazole]
acetylation state of tubulin [1]: tubulin deacetylation

NC(=O)c1cccnc1 [nicotinamide]
HDAC activity of SIRT2 ([2]; increasing concentrations of nicotinamide, 156 μM to 20 mM): dose dependent decrease | tubulin deacetylation by SIRT2 ([3]; 5 mM nicotinamide): completely inhibited | inhibition of SIRT1 [4]: effective inhibitor

CC(/C=C/C(=O)NO)=C\[C@@H](C)C(=O)c1ccc(N(C)C)cc1 [TSA, Trichostatin A]
localization of GFP-MIZ-1 ([5]; HeLa cells treated with TSA (400 nM, 12 hours)): distinct shift in localization of GFP-MIZ-1 from the nucleus to the cytoplasm | percentage of cells with GFP-MIZ-1 localized in the cytoplasm ([5]; co-transfected with FLAG empty vector): 36.9% | percentage of cells with GFP-MIZ-1 localized in the cytoplasm ([5]; co-transfected with SIRT2-FLAG wild-type): 11.2% | percentage of cells with GFP-MIZ-1 localized in the cytoplasm ([5]; co-transfected with catalytically inactive SIRT2-FLAG N168A): 35.3% | HDAC activity of SIRT2 ([2]; immunoprecipitated SIRT2-FLAG, 1 mM NAD, increasing concentrations of TSA (100-1600 nM)): No change | acetylation of α-tubulin in cells [6]: induces hyperacetylation | tubulin deacetylation by SIRT2 ([3]; 400 nM TSA): had no effect

NC(=O)c1ncn([C@@H]2O[C@H](CO)[C@@H](O)[C@H]2O)n1 [Ribavirin, 1-β-D-ribofuranosyl-1H-1,2,4-triazole-3-carboxamide]
effect on SIRT3 in vitro HDAC activity [7]: no effect | inhibition at 25 µM [8]: ~50%

acetylated tubulin peptide: 9-amino acid synthetic α-tubulin peptide (MPSD(AcK)TIGG), acetylated on lysine-40 (MPSDK(Ac)TIGG)
V/K [9]: 894 ± 100 M⁻¹ s⁻¹ | kcat [9]: 0.144 ± 0.005 s⁻¹ | V/K [10]: 14.9 M⁻¹ s⁻¹ | kcat [10]: 0.00254 ± 0.0003 s⁻¹

— patent US7884081B2, “Methods of modulating tubulin deacetylast activity” (The J. David Gladstone Institutes, priority 2002, dated 2011)
